These results are taken from ChEMBL document CHEMBL1143006, “Examination of acylated 4-aminopiperidine-4-carboxylic acid residues in the phosphotyrosyl+1 position of Grb2 SH2 domain-binding tripeptides” (J Med Chem, 2007).

Broadly, the Kd is a measure of binding affinity in units of concentration. Read a high Kd as weaker binding.

In the assay the target is Growth factor receptor-bound protein 2 (Homo sapiens, UniProt P62993). In words: Binding affinity to Grb2-SH2 domain by surface plasmon resonance. On the technique in general: In SPR one partner is held on a chip, and binding of the other changes the refractive index at the surface.
Sequence of Growth factor receptor-bound protein 2 (P62993 whole entry, the tested form may be a part): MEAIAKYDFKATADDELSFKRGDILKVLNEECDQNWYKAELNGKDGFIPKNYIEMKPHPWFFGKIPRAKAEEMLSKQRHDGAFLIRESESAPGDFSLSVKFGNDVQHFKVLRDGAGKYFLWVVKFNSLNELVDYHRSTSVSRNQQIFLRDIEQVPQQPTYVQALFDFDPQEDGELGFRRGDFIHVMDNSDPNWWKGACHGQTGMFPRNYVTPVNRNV
For `NC(=O)C[C@H](NC(=O)C1(NC(=O)[C@@H](CC(=O)O)Cc2ccc(CP(=O)(O)O)cc2)CCN(C(=O)CCCCc2ccccc2)CC1)C(=O)NCCCc1ccc2ccccc2c1`, binding was characterised by a dissociation constant (Kd) of 2180 nM.
The figure for `COC(=O)N1CCC(NC(=O)[C@@H](CC(=O)O)Cc2ccc(CP(=O)(O)O)cc2)(C(=O)N[C@@H](CC(N)=O)C(=O)NCCCc2ccc3ccccc3c2)CC1` is 106 nM.
The same measure for `COCCOC(=O)N1CCC(NC(=O)[C@@H](CC(=O)O)Cc2ccc(CP(=O)(O)O)cc2)(C(=O)N[C@@H](CC(N)=O)C(=O)NCCCc2ccc3ccccc3c2)CC1`: 202 nM.
The same measure for `NC(=O)C[C@H](NC(=O)C1(NC(=O)[C@@H](CC(=O)O)Cc2ccc(CP(=O)(O)O)cc2)CCN(C(=O)NCCc2ccccc2)CC1)C(=O)NCCCc1ccc2ccccc2c1`: 272 nM; for `NC(=O)C[C@H](NC(=O)C1(NC(=O)[C@@H](CC(=O)O)Cc2ccc(CP(=O)(O)O)cc2)CCN(C(=O)OCc2ccc(C(=O)O)cc2)CC1)C(=O)NCCCc1ccc2ccccc2c1`: 871 nM; for `NC(=O)C[C@H](NC(=O)C1(NC(=O)[C@@H](CC(=O)O)Cc2ccc(CP(=O)(O)O)cc2)CCN(C(=O)OCc2ccccc2)CC1)C(=O)NCCCc1ccc2ccccc2c1`: 320 nM.
`NC(=O)C[C@H](NC(=O)C1(NC(=O)[C@@H](CC(=O)O)Cc2ccc(CP(=O)(O)O)cc2)CCN(C(=O)OCCc2ccccc2)CC1)C(=O)NCCCc1ccc2ccccc2c1` gave a Kd of 36 nM.
The same measure for `NC(=O)C[C@H](NC(=O)C1(NC(=O)[C@@H](CC(=O)O)Cc2ccc(CP(=O)(O)O)cc2)CCN(C(=O)CCCc2ccccc2)CC1)C(=O)NCCCc1ccc2ccccc2c1`: 27 nM; for `Cc1ccc2c(ccn2CCC(=O)N2CCC(NC(=O)[C@@H](CC(=O)O)Cc3ccc(CP(=O)(O)O)cc3)(C(=O)N[C@@H](CC(N)=O)C(=O)NCCCc3ccc4ccccc4c3)CC2)c1`: 458 nM; for `NC(=O)C[C@H](NC(=O)C1(NC(=O)[C@@H](CC(=O)O)Cc2ccc(CP(=O)(O)O)cc2)CCN(S(=O)(=O)CCc2ccccc2)CC1)C(=O)NCCCc1ccc2ccccc2c1`: 2140 nM.
